Source: the supplement of paper PMC10307832

Experiments:
IU1-47 + Trametinib = compound: CC1=CC(=C(N1C2=CC=C(C=C2)Cl)C)C(=O)CN3CCCCC3 [IU1-47] + CC(=O)Nc1cccc(-n2c(=O)n(C3CC3)c(=O)c3c(Nc4ccc(I)cc4F)n(C)c(=O)c(C)c32)c1 [Trametinib] (partner 0.02 µM); experiment: relative viability (nuclei count vs DMSO), 5 days (fraction); higher = more cells survive
Method in brief: (§1)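 Lung cancer cell lines, seeded in 1536-well plates, were treated the following day by pin tool with a single drug or with five library-drug doses (not always all listed) in √10 steps on top of a fixed anchor-drug dose. Cells were fixed and nuclei stained in one step after 5 days, and nuclei were counted. Relative viability is the nuclei count for treated wells divided by that for vehicle wells, reported as medians of duplicate plates.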

FG-4592 + Dasatinib = compound: Cc1nc(C(=O)NCC(=O)O)c(O)c2ccc(Oc3ccccc3)cc12 [FG-4592] + Cc1nc(Nc2ncc(C(=O)Nc3c(C)cccc3Cl)s2)cc(N2CCN(CCO)CC2)n1 [Dasatinib] (partner 0.075 µM); experiment: as above
Method in brief: as §1

Cell Line | relative viability (IU1-47 + Trametinib; first compound 0.08 µM) | relative viability (IU1-47 + Trametinib; first compound 0.253 µM) | relative viability (IU1-47 + Trametinib; first compound 0.8 µM) | relative viability (IU1-47 + Trametinib; first compound 2.53 µM) | relative viability (IU1-47 + Trametinib; first compound 8 µM) | relative viability (FG-4592 + Dasatinib; first compound 0.08 µM) | relative viability (FG-4592 + Dasatinib; first compound 0.253 µM) | relative viability (FG-4592 + Dasatinib; first compound 0.8 µM) | relative viability (FG-4592 + Dasatinib; first compound 2.53 µM) | relative viability (FG-4592 + Dasatinib; first compound 8 µM)
HCC-44 | 1.08 | 1.1 | 1.04 | 1.08 | 0.992 | – | – | – | – | –
HCC-827 | 0.565 | 0.481 | 0.596 | 0.54 | 0.517 | 0.264 | 0.379 | 0.386 | 0.259 | 0.282
NCI-H1623 | – | – | – | – | – | 0.505 | 0.555 | 0.446 | 0.486 | 0.468
NCI-H2347 | 0.258 | 0.282 | 0.3 | 0.304 | 0.302 | 0.323 | – | 0.263 | 0.284 | 0.279
PC-14 | 0.95 | 0.771 | 0.91 | 1.14 | 0.723 | 0.274 | 0.195 | 0.275 | 0.311 | 0.343
NCI-H1651 | 0.885 | 0.856 | 0.806 | 0.824 | 0.811 | 0.416 | 0.439 | 0.356 | 0.325 | 0.367
HARA | 0.802 | – | 0.929 | 0.628 | 0.774 | 0.272 | 0.208 | 0.266 | 0.24 | 0.234
NCI-H1650 | 0.515 | 0.766 | 0.612 | 0.62 | 0.459 | 0.304 | 0.361 | 0.281 | 0.295 | 0.342
NCI-H1395 | 1.16 | 1.13 | 1.06 | 0.914 | 0.803 | 0.446 | 0.416 | 0.373 | 0.364 | 0.365
LU99A | 0.499 | 0.355 | 0.606 | 0.617 | 0.543 | 0.535 | 0.371 | 0.402 | 0.561 | 0.58
NCI-H1355 | 0.432 | 0.441 | 0.386 | – | 0.35 | 0.763 | 0.638 | 0.476 | 0.553 | 0.554
HCC-78 | 0.929 | 0.812 | 0.814 | 0.515 | 0.939 | 0.472 | 0.333 | 0.379 | 0.386 | 0.32
NCI-H1563 | – | – | – | – | – | 0.465 | 0.465 | 0.397 | 0.466 | 0.44
HCC-15 | 0.415 | 0.384 | 0.384 | – | 0.469 | 0.65 | 0.601 | 0.536 | 0.554 | 0.681
EKVX | 0.369 | 0.374 | 0.375 | – | 0.296 | 0.629 | 0.555 | 0.53 | 0.486 | 0.495
NCI-H2087 | 0.172 | 0.187 | 0.203 | 0.195 | 0.229 | 0.793 | 0.864 | 0.862 | 0.861 | 0.757
LK-2 | 0.932 | 0.834 | 0.772 | 0.545 | 0.831 | 0.281 | 0.304 | – | 0.262 | 0.277
NCI-H1437 | 0.48 | 0.485 | 0.556 | 0.391 | 0.496 | 0.409 | 0.309 | 0.335 | 0.392 | 0.345

Cell Line | relative viability (IU1-47 + Trametinib; first compound 0.08 µM) | relative viability (IU1-47 + Trametinib; first compound 0.253 µM) | relative viability (IU1-47 + Trametinib; first compound 0.8 µM) | relative viability (IU1-47 + Trametinib; first compound 2.53 µM) | relative viability (IU1-47 + Trametinib; first compound 8 µM) | relative viability (FG-4592 + Dasatinib; first compound 0.08 µM) | relative viability (FG-4592 + Dasatinib; first compound 0.253 µM) | relative viability (FG-4592 + Dasatinib; first compound 0.8 µM) | relative viability (FG-4592 + Dasatinib; first compound 2.53 µM) | relative viability (FG-4592 + Dasatinib; first compound 8 µM)
COR-L23 | 0.579 | 0.578 | 0.595 | 0.534 | 0.788 | 0.467 | 0.47 | 0.504 | 0.446 | 0.409
ABC-1 | – | – | – | – | – | 0.532 | 0.463 | 0.48 | 0.59 | 0.463
SW 900 | 0.876 | – | 0.783 | 0.881 | 0.716 | 0.889 | 0.57 | 0.444 | 0.55 | 0.461
NCI-H838 | 0.521 | 0.472 | 0.581 | 0.501 | 0.53 | 0.271 | 0.262 | 0.226 | 0.27 | 0.207
NCI-H1648 | 0.624 | 0.535 | 0.463 | 0.407 | 0.391 | – | – | – | – | –
A-427 | 0.833 | 0.879 | 0.773 | 0.749 | 0.636 | 0.649 | 0.611 | 0.741 | 0.725 | 0.717
NCI-H1792 | 0.569 | 0.392 | 0.437 | 0.402 | 0.422 | 0.871 | 0.72 | 0.846 | 0.668 | 0.748
LCLC-97TM1 | 0.201 | 0.188 | 0.198 | – | 0.179 | 0.873 | 0.734 | 0.907 | 0.928 | 1.03
LCLC-103H | 0.71 | 0.817 | 0.701 | 0.647 | 0.7 | 0.414 | 0.492 | 0.311 | 0.342 | 0.408
PC-3 [JPC-3] | 0.771 | 0.686 | 0.73 | 0.715 | 0.791 | 1.04 | 0.92 | 0.896 | 1.05 | 0.954
BEN | 1.21 | 1.1 | 1.23 | 0.896 | 1.15 | 0.323 | 0.348 | 0.262 | 0.365 | 0.305
NCI-H1666 | 1 | 0.871 | 0.851 | 0.916 | 0.901 | 0.812 | 0.792 | 0.801 | 0.794 | 0.808
LC-2-ad | 0.951 | 1.02 | 0.954 | – | 0.884 | 0.513 | 0.559 | – | 0.536 | 0.66
SK-LU-1 | 0.52 | 0.542 | 0.543 | 0.491 | 0.395 | 0.167 | 0.17 | 0.15 | 0.159 | 0.151
ChaGo-K-1 | 0.927 | 0.869 | 0.958 | 0.813 | 0.814 | 0.584 | 0.577 | 0.516 | 0.542 | 0.592
COR-L 105 | 0.522 | 0.422 | 0.45 | 0.461 | 0.459 | 0.309 | 0.306 | 0.294 | 0.258 | 0.286
NCI-H1975 | 0.337 | 0.324 | 0.464 | 0.328 | 0.322 | 0.416 | 0.313 | 0.351 | 0.277 | 0.366
NCI-H1993 | 0.545 | 0.613 | 0.564 | 0.471 | 0.0511 | 0.513 | 0.631 | 0.473 | 0.547 | 0.396
